# In US20060111289A1, “Compositions and methods of using Alpha-fetoprotein growth inhibitory peptides” (Serometrix, LLC,, priority 2004, published 2006):
# Entries after “also recorded” stand apart in the source; their conditions may differ. Like-named read-outs stand apart in the source and are kept apart here. Where a SMILES comes first, the peptide text is derived from it.
# Experiments:
# K-562 = K-562 (white blood cell, leukemia); 6-Day Assay; Conc. 10^−7 Molar
# NCI-H460 = NCI-H460 (non-small cell lung, CA); 2-Day Assay; Conc. 10^−2 Molar
# MDA-MB-435 = MDA-MB-435 (breast, AC); 2-Day Assay; Conc. 10^−1 Molar
# ACHN = ACHN (kidney, renal CA); 2-Day Assay; Conc. 10^−2 Molar
# SF-539 = SF-539 (central nervous system, CA)
# MDA-MB-231 = MDA-MB-231 (breast, AC); 6-Day Assay; Conc. 10^−7 only Molar
# IGROV1 = IGROV1 (ovary, AC); 2-Day Assay; Conc. 10^−1 Molar
# DU-145 = DU-145 (prostate, AC); 2-Day Assay; Conc. 10^−1 Molar
# NCI-H226 = NCI-H226 (non-small cell lung, CA)
# RXF-393 = RXF-393 (kidney, renal CA); 2-Day Assay; Conc. 10^−1 Molar
# UACC-257 = UACC-257 (melanoma, squamous); 2-Day Assay; Conc. 10^−2 Molar
# HCC-299 = HCC-299 (colon, AC); 2-Day Assay; Conc. 10^−1 Molar
# OVCAR-3 = OVCAR-3 (ovary, AC); 2-Day Assay; Conc. 10^−2 Molar
# MCF-7 = MCF-7 (breast, AC); 2-Day Assay; Conc. 10^−2 Molar
# [1] = tested on: human kidney tumor cell line
# CCRF-CEM = CCRF-CEM (white blood cell, leukemia)
# SK-MeL-5 = SK-MeL-5 (melanoma, squamous)
# U-251 = U-251 (central nervous system, CA); 2-Day Assay; Conc. 10^−2 Molar
# T-47D = T-47D (breast, AC)
# 60 cancer cell lines = assay: NCI screen of 60 cancer cell lines, 2 day versus 6-day sulforhodamine assay; assay type: cell-based, human; conditions: nine different cancer cell types
# Description: These findings detailed the in vitro results of the GIP challenges against 60 different cell culture lines representing a variety of human cancers.
# Molt-4 = Molt-4 (white blood cell, leukemia); 2-Day Assay; Conc. 10^−2 Molar
# PC-3 = PC-3 (prostate, AC); 2-Day Assay; Conc. 10^−1 Molar
# Colo-205 = Colo-205 (colon, AC)
# MCF-7 and GI-101 cells = assay: ATP luminescence cytostatic assay (6 days); assay type: cell-based, human; conditions: peptide 10^−12 to 10^−8 M
# Description: FIG. 2 presents exemplary data for both in vivo and in vitro growth suppressive activities of the GIP-derived P149 and control peptides are depicted in GI-101 human ductal breast carcinoma and in MCF-7 human glandular breast carcinoma. • Panels A and A2: GI-101 and MCF-7 xenograft in nude mice administered P149 time-release pellets for 60 days and 30 days, respectively (N=5 mice/group). • Panels B and B2: GI-101 and MCF-7 in cell cultures treated with P149 and P187 at concentrations from 10-8 to 10-12 M for 6 days and assayed by ATP luminescence reagent employing a luciferin-luciferase system. The ATP assay, used to distinguish between cytostasis versus cytotoxicity, was used to confirm that P149 was cytostatic in its cell inhibitory activity at 6 days (see text for details).
# In order to confirm whether P149 was indeed cytostatic, and not cytotoxic, an ATP-based cytostatic assay was performed which measures the decrease in cytosolic ATP during drug (i.e., for example, GIP peptide) treatment. This ATP luminescence assay has long been employed to distinguish between cytostatic versus cytotoxic chemotherapeutic sensitivity of drugs. […] After incubation of the cell cultures for 6 days, cytosolic ATP was extracted, stabilized, and quantitated from a standard curve produced from Berthold LB-96P luminometer readings using a luciferin-luciferase counting reagent.
# [2] = tested on: 6WI-1 mammary tumor cells; assay: 6WI-1 mammary tumor in 15-day old mouse pups (6 day assay); assay type: in vivo; conditions: mouse, in vivo
# Description: As an alternative model of the 6WI-I mammary tumor in adult mice, an inocula of 1×10^6 tumor cells injected into 15-day old mouse pups provided a 6 day rather than a 12 day assay and replicated the same tumor growth suppression by GIP.
molecule,measurement,setting,value
CC[C@H](C)[C@H](NC(=O)[C@H](CS)NC(=O)[C@H](CC(C)C)NC(=O)[C@H](Cc1c[nH]cn1)NC(=O)CNC(=O)[C@@H](NC(=O)[C@@H](NC(=O)[C@@H](NC(=O)[C@H](CC(=O)O)NC(=O)[C@H](C)NC(=O)[C@H](C)NC(=O)CNC(=O)[C@H](CCC(=O)O)NC(=O)CNC(=O)[C@H](CS)NC(=O)[C@H](C)NC(=O)[C@H](CC(C)C)NC(=O)[C@H](CC(C)C)NC(=O)[C@H](CCCCN)NC(=O)[C@H](CC(=O)O)NC(=O)[C@H](CCC(=O)O)NC(=O)[C@H](CO)NC(=O)[C@@H](N)CC(C)C)[C@@H](C)CC)[C@@H](C)CC)[C@@H](C)CC)C(=O)N[C@@H](CCCNC(=N)N)C(=O)N[C@@H](Cc1c[nH]cn1)C(=O)N[C@@H](CCC(=O)O)C(=O)N[C@@H](CCSC)C(=O)N[C@H](C(=O)N1CCC[C@H]1C(=O)N[C@H](C(=O)N[C@@H](CC(N)=O)C(=O)N1CCC[C@H]1C(=O)NCC(=O)N[C@H](C(=O)O)C(C)C)C(C)C)[C@@H](C)O [P149] (H-LSEDKLLACGEGAADIIIGHLCIRHEMTPVNPGV-OH),% Growth Inhibition,K-562,45%
same,% Growth Inhibition,NCI-H460,30%
same,% Growth Inhibition,MDA-MB-435,20%
same,% Growth Inhibition,ACHN,20%
same,% Growth Inhibition,"SF-539; 2-Day Assay, Conc. 10^−2 Molar",10%
same,% Growth Inhibition,"SF-539; 6-Day Assay, Conc. 10^−5 Molar",15-20%
same,% Growth Inhibition,MDA-MB-231,80%
same,% Growth Inhibition,IGROV1,10%
same,% Growth Inhibition,DU-145,10%
same,% Growth Inhibition,"NCI-H226; 2-Day Assay, Conc. 10^−2 Molar",5%
same,% Growth Inhibition,"NCI-H226; 6-Day Assay, Conc. 10^−5 Molar",5-10%
same,% Growth Inhibition,RXF-393,30%
same,% Growth Inhibition,UACC-257,20%
same,% Growth Inhibition,HCC-299,20%
same,% Growth Inhibition,OVCAR-3,20%
same,% Growth Inhibition,MCF-7,20%
same,% Inhibition Of Activity: Kidney tumor growth,[1],70%
same,% Growth Inhibition,"CCRF-CEM; 2-Day Assay, Conc. 10^−2 Molar",5%
same,% Growth Inhibition,"CCRF-CEM; 6-Day Assay, Conc. 10^−5 Molar",5-10%
same,% Growth Inhibition,"SK-MeL-5; 2-Day Assay, Conc. 10^−2 Molar",5%
same,% Growth Inhibition,"SK-MeL-5; 6-Day Assay, Conc. 10^−5 Molar",10%
same,% Growth Inhibition,U-251,15%
same,% Growth Inhibition,"T-47D; 2-Day Assay, Conc. 10^−2 Molar",10%
same,% Growth Inhibition,"T-47D; 6-Day Assay, Conc. 10^−5 Molar",25%
same,Number of the 60 cancer cell lines against which the peptide appeared cytostatic (not cytotoxic),60 cancer cell lines,38
same,% Growth Inhibition,Molt-4,5%
same,% Growth Inhibition,PC-3,5%
same,% Growth Inhibition,"Colo-205; 2-Day Assay, Conc. 10^−2 Molar",10%
same,% Growth Inhibition,"Colo-205; 6-Day Assay, Conc. 10^−5 Molar",10%
LSENKLLACGEGAANIIIGHLCIRHEMTPVNPGV (listed as Homo sapiens) [P187],Growth inhibition / decrease in cytosolic ATP in the ATP luminescence assay,MCF-7 and GI-101 cells,significantly different; also recorded: equally responsive as P149 at 10^−8 M
same,Growth inhibitory potency in the mouse pup model compared with P149,[2],slightly less growth inhibitory potency
